These are literature values, as cited in patent US20120201889A1, “MODIFIED AND IMMEDIATE RELEASE FORMULATIONS OF MEMANTINE” (Forest Laboratories Holdings Ltd., priority 2005, published 2012).

The conditions of this data set: after oral administration.

Take `CC12CC3CC(C)(C1)CC(N)(C3)C2` [memantine, 1-amino-3,5-dimethyladamantane]: the absolute bioavailability result is on record as “approximately 100%”.
